Drawing on US20250346600A1, “TRICYCLIC DERIVATIVES AND RELATED USES” (MOMA Therapeutics, Inc., priority 2023, published 2025), this text covers AC50 for 17 compounds.

Assay [1] addresses Full length WRN protein (aa 2-1432) (Homo sapiens (Human), UniProt Q14191). The assay can be described thus: WRN ATPase ADP-Glo biochemical assay, Assay Format A (10 μM ATP). The note with it: 0.25 nM WRN, 100 nM C6.18 ssDNA, 30 min preincubation, read-out: ATPase ADPGlo AC50 (uM)- Assay Format A. From the text:
Full length Werner helicase construct (Uniprot: Q14191) with an N-terminal FLAG-AVI-TEV tag was expressed using the Sf9 cell/baculovirus expression system. The harvested cell pellet was resuspended and lysed in a glass homogenizer. After insoluble material was removed by centrifugation, the helicase protein was first purified with FLAG affinity resin and then further purified through a size-exclusion chromatography column. Peak fractions containing the purified protein were concentrated, split into aliquots and frozen in liquid nitrogen to be thawed before use. Biochemical Assay Description (ATPase activity)-Assay Format A WRN activity was measured using an ATPase assay. Full length WRN protein (aa 2-1432) (production described separately) was used for the biochemical activity assays. The 39-mer ssDNA “C6.18” [NT] was purchased from IDT and used as a substrate. Quantification of ATP hydrolysis was evaluated using the ADP-Glo assay kit (Promega, Madison, WI). An enzyme titration time-course was performed to determine the optimal assay conditions. […] To evaluate the inhibitory effects of the compounds, 11-point 3-fold serial dilutions were prepared in DMSO. 50 nL of each concentration in duplicate was preincubated for 30 minutes in a 384-well microplate (Greiner #784075) with 5 μL of 0.5 nM WRN in assay buffer. The reaction was initiated by adding 5 μL of 200 nM C6.18 DNA with 20 μM ATP and was allowed to proceed for 30 minutes at room temperature. The reaction was stopped with 10 μL ADP-Glo reagent for 1 hour to remove unreacted ATP. Lastly, 20 μL ATP detection reagent was added and incubated for 1 hour to generate the luminescence signal. Control wells included “high controls” with no inhibition (DMSO, no compound) and “low controls” with maximum inhibition (no WRN). Luminescence was recorded on a PHERAstar (BMG Labtech, Ortenberg, Germany). Data was fit using the “Smart Fit” method within the Genedata Screener Software (Basel, Switzerland) to obtain IC50 values using four-parameter fits. Reported IC50s are the geometric means of at least two independent trials.
A general note: ADP-Glo first removes unused ATP, then detects ADP through luciferase.

The subject of assay [2] is HCT116 cells. The assay can be described thus: HCT116 (MSI) 7 day viability, CellTiter Glo. The class given is cell-based. The note with it: Homo sapiens, HCT-116, 168 h, 7 days, read-out: HCT116 (MSI) Viability 7 Day Abs AC50. In outline:
(§1)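 HCT116 (50 cells/well) or HT29 (500 cells/well) exposed 7 days at 37° C, 5% CO2, to 10-point 3-fold compound dilutions. Viability measured by CellTiter Glo luminescence, background from cell-free wells; IC50 from four-parameter logistic fit, geometric mean of at least 2 replicates.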
(In general: Cellular ATP, detected with luciferase, serves as a proxy for viable cell number.)

Assay [3] deals with HT29 cells. The assay can be described thus: HT29 (MSS) 7 day viability, CellTiter Glo. The class given is cell-based. To be noted: Homo sapiens, HT-29, 168 h, 7 days, read-out: HT29 (MSS) Viability 7 Day CTGAbs AC50. In outline: as §1

Sequence of Full length WRN protein (aa 2-1432) (Q14191 2-1432): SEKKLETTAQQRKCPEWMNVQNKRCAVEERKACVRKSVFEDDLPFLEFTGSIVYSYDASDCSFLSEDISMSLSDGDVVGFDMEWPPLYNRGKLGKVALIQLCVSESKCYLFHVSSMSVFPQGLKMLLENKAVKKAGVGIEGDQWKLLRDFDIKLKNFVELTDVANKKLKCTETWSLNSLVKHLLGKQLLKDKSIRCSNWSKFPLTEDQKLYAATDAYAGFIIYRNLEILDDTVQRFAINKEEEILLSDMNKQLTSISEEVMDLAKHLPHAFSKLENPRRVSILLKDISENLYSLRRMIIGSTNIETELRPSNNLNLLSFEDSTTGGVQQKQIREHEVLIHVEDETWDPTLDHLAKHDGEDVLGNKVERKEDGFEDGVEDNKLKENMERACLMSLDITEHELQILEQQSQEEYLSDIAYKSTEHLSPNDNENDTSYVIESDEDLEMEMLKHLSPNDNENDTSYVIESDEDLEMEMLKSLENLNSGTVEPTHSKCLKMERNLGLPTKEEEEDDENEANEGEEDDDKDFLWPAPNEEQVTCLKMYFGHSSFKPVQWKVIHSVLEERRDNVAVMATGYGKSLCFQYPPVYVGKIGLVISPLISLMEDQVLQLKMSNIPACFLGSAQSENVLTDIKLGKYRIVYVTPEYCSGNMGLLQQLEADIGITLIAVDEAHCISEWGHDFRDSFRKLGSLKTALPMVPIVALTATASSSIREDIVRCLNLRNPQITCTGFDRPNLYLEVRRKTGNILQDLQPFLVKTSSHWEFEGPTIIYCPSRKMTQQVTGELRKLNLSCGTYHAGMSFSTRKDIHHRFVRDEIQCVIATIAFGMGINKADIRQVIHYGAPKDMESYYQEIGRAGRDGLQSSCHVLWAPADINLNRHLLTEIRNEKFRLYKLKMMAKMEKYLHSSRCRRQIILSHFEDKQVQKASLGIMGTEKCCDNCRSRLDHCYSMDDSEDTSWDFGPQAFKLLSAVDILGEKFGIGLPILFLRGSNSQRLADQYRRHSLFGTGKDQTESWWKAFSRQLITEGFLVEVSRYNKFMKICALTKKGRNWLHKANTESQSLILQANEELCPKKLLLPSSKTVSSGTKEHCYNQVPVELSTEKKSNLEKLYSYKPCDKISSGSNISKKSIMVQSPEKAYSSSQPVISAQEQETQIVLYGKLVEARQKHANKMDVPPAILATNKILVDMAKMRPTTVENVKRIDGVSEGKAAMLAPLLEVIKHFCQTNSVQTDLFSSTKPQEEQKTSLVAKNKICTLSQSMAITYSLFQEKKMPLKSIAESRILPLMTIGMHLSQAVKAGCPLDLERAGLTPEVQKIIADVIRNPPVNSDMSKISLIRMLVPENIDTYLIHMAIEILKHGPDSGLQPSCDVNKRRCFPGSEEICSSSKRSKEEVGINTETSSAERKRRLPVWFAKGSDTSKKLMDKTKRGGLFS

Broadly, the AC50 is the midpoint of the concentration-response curve, whichever way the signal moves. As for `C=CC(=O)N1CCOCc2nn(-c3ccc(C(C)C)cc3C)c3c2C(C1)N(C(=O)c1ccc(Br)c(O)c1)CC3` (stereo not drawn) [Compound 36, 1-(5-(4-bromo-3-hydroxybenzoyl)-2-(4-isopropyl-2-methylphenyl)-2,4,5,5a,6,8,9,11-octahydro-10-oxa-1,2,5,7-tetraazacyclonona[cd]inden-7(3H)-yl)prop-2-en-1-one], the half-maximal activity concentration (AC50) in assay [1] was 0.015 to 0.055 µM; in assay [2], 500 to 1000 nM; in assay [3], above 3000 nM.

Take `C=CC(=O)N1CCn2nc(-c3ccc(C(C)C)cc3)c3c2C(C1)N(C(=O)c1ccc(Br)c(O)c1)CC3` (stereo not drawn) [Compound 37, 1-(5-(4-bromo-3-hydroxybenzoyl)-2-(4-isopropylphenyl)-4,5,5a,6,8,9-hexahydro-1,5,7,9a-tetraazabenzo[cd]azulen-7(3H)-yl)prop-2-en-1-one]: the AC50 in assay [1] is 0.015 to 0.055 µM; in assay [2] it was above 1000 nM; in assay [3], above 3000 nM.

Take `C=CC(=O)N1CCOc2nn(-c3ccc(C(C)C)cc3)c3c2C(C1)N(C(=O)c1ccc(Br)c(O)c1)CC3` (stereo not drawn) [Compound 48, 1-(5-(4-bromo-3-hydroxybenzoyl)-2-(4-isopropylphenyl)-2,3,4,5,5a,6,8,9-octahydro-7H-10-oxa-1,2,5,7-tetraazacycloocta[cd]inden-7-yl)prop-2-en-1-one]: the AC50 in assay [1] was 0.0015 to 0.005 µM; in assay [2], 100 to 250 nM; in assay [3], above 3000 nM.

As to `CN(C)CC=CC(=O)N1CCOc2nn(-c3ccc(C4CCC4)cc3)c3c2C(C1)N(C(=O)c1ccc(Br)c2[nH]cnc12)CC3` (stereo not drawn) [Compound 51, 1-(5-(7-bromo-1H-benzo[d]imidazole-4-carbonyl)-2-(4-cyclobutylphenyl)-2,3,4,5,5a,6,8,9-octahydro-7H-10-oxa-1,2,5,7-tetraazacycloocta[cd]inden-7-yl)-4-(dimethylamino)but-2-en-1-one], the AC50 in assay [1] was 0.015 to 0.055 µM; in assay [2], above 1000 nM; in assay [3] it was above 3000 nM.

`C=CC(=O)N1CCN(C)c2nn(-c3ccc(C(C)C)cc3)c3c2C(C1)N(C(=O)c1ccc(Br)c2[nH]cnc12)CC3` (stereo not drawn) [Compound 56, 1-(5-(7-bromo-1H-benzo[d]imidazole-4-carbonyl)-2-(4-isopropylphenyl)-10-methyl-2,4,5,5a,6,8,9,10-octahydro-1,2,5,7,10-pentaazacycloocta[cd]inden-7(3H)-yl)prop-2-en-1-one]: the AC50 in assay [1] was 0.015 to 0.055 µM; in assay [2], 250 to 500 nM; in assay [3], above 3000 nM.

For `C=CC(=O)N1CCc2nn(-c3ccc(C4CC4)cc3)c3c2C(C1)N(C(=O)c1ccc(-n2cccn2)nc1)CC3` (stereo not drawn) [Compound 98, 1-(5-(6-(1H-pyrazol-1-yl)nicotinoyl)-2-(4-cyclopropylphenyl)-2,3,4,5,5a,6,8,9-octahydro-7H-1,2,5,7-tetraazabenzo[cd]azulen-7-yl)prop-2-en-1-one], the values for the AC50 in assay [1], in assay [2] and in assay [3] were 0.015 to 0.055 µM, 250 to 500 nM and above 3000 nM, respectively.

Consider `C=CC(=O)N1CCc2nn(-c3ccc(C4CC4)cc3)c3c2C(C1)N(C(=O)c1ccc(C(F)(F)F)nn1)CC3` (stereo not drawn) [Compound 115, 1-(2-(4-cyclopropylphenyl)-5-(6-(trifluoromethyl)pyridazine-3-carbonyl)-2,3,4,5,5a,6,8,9-octahydro-7H-1,2,5,7-tetraazabenzo[cd]azulen-7-yl)prop-2-en-1-one], for which the AC50 in assay [1] was 0.015 to 0.055 µM; in assay [2] it was 500 to 1000 nM; in assay [3], above 3000 nM.

Turning to `C=CC(=O)N1CCc2nn(-c3ccc(C4CC4)cc3)c3c2C(C1)N(C(=O)c1cc2n(n1)CCN(C)S2(=O)=O)CC3` (stereo not drawn) [Compound 116, 1-(2-(4-cyclopropylphenyl)-5-(2-methyl-1,1-dioxido-3,4-dihydro-2H-pyrazolo[1,5-e][1,2,5]thiadiazine-7-carbonyl)-2,3,4,5,5a,6,8,9-octahydro-7H-1,2,5,7-tetraazabenzo[cd]azulen-7-yl)prop-2-en-1-one], the figures for the AC50 in assay [1], in assay [2] and in assay [3] were above 0.055 µM, above 1000 nM and above 3000 nM, respectively.

Consider `C=CC(=O)N1CCc2nn(-c3ccc(C4CC4)cc3)c3c2C(C1)N(C(=O)c1ccc(OCC(F)(F)F)nc1)CC3` (stereo not drawn) [Compound 118, 1-(2-(4-cyclopropylphenyl)-5-(6-(2,2,2-trifluoroethoxy)nicotinoyl)-2,3,4,5,5a,6,8,9-octahydro-7H-1,2,5,7-tetraazabenzo[cd]azulen-7-yl)prop-2-en-1-one], for which the AC50 was above 0.055 µM in assay [1], above 1000 nM in assay [2] and above 3000 nM in assay [3].

As for `C=CC(=O)N1CCc2nn(-c3ccc(C4CC4)cc3)c3c2C(C1)N(C(=O)c1ccc(C2(C#N)CC2)nc1)CC3` (stereo not drawn) [Compound 119, 1-(5-(7-acryloyl-2-(4-cyclopropylphenyl)-3,4,5,5a,6,7,8,9-octahydro-2H-1,2,5,7-tetraazabenzo[cd]azulene-5-carbonyl)pyridin-2-yl)cyclopropane-1-carbonitrile], the AC50 in assay [1] is 0.015 to 0.055 µM; in assay [2], above 1000 nM; in assay [3], above 3000 nM.

Turning to `C=CC(=O)N1CCc2nn(-c3ccc(C4CC4)cc3)c3c2C(C1)N(C(=O)c1cnc([N+](=O)[O-])c(O)c1)CC3` (stereo not drawn) [Compound 120, 1-(2-(4-cyclopropylphenyl)-5-(5-hydroxy-6-nitronicotinoyl)-2,3,4,5,5a,6,8,9-octahydro-7H-1,2,5,7-tetraazabenzo[cd]azulen-7-yl)prop-2-en-1-one], the values for the concentration at half-maximal activity (AC50) in assay [1], in assay [2] and in assay [3] were 0.0015 to 0.005 µM, above 1000 nM and above 3000 nM, respectively.

As to `C=CC(=O)N1CCc2nn(-c3ccc(C4CC4)cc3)c3c2C(C1)N(C(=O)c1ccc(OC(C)C)nc1)CC3` (stereo not drawn) [Compound 122, 1-(2-(4-cyclopropylphenyl)-5-(6-isopropoxynicotinoyl)-2,3,4,5,5a,6,8,9-octahydro-7H-1,2,5,7-tetraazabenzo[cd]azulen-7-yl)prop-2-en-1-one], the AC50 is 0.015 to 0.055 µM in assay [1], 500 to 1000 nM in assay [2] and above 3000 nM in assay [3].

Take `C=CC(=O)N1CCc2nn(-c3ccc(C4CC4)cc3)c3c2C(C1)N(C(=O)c1ccc(C#N)nc1)CC3` (stereo not drawn) [Compound 123, 5-(7-acryloyl-2-(4-cyclopropylphenyl)-3,4,5,5a,6,7,8,9-octahydro-2H-1,2,5,7-tetraazabenzo[cd]azulene-5-carbonyl)picolinonitrile]: the results for the AC50 in assay [1], in assay [2] and in assay [3] were 0.015 to 0.055 µM, 250 to 500 nM and above 3000 nM, respectively.

With `C=CC(=O)N1CCc2nn(-c3ccc(C4CC4)cc3)c3c2C(C1)N(C(=O)c1ccc(C(F)F)nc1)CC3` (stereo not drawn) [Compound 126, 1-(2-(4-cyclopropylphenyl)-5-(6-(difluoromethyl)nicotinoyl)-2,3,4,5,5a,6,8,9-octahydro-7H-1,2,5,7-tetraazabenzo[cd]azulen-7-yl)prop-2-en-1-one], the results for the AC50 in assay [1], in assay [2] and in assay [3] were 0.005 to 0.015 µM, 250 to 500 nM and above 3000 nM, respectively.

`C=CC(=O)N1CCc2nn(-c3ccc(C4CCC4)cc3O)c3c2C(C1)N(C(=O)c1cnc(Br)c2[nH]cnc12)CC3` (stereo not drawn) [Compound 137, 1-(5-(4-bromo-3H-imidazo[4,5-c]pyridine-7-carbonyl)-2-(4-cyclobutyl-2-hydroxyphenyl)-2,3,4,5,5a,6,8,9-octahydro-7H-1,2,5,7-tetraazabenzo[cd]azulen-7-yl)prop-2-en-1-one]: the figures for the AC50 in assay [1], in assay [2] and in assay [3] were below 0.0015 µM, 1 to 100 nM and above 3000 nM, respectively.

For `C=CC(=O)N1CCc2nn(-c3ccc(C4CCC4)cc3O)c3c2C(C1)N(C(=O)c1cnc(C(F)(F)F)c2[nH]ncc12)CC3` (stereo not drawn) [Compound 151, 1-(2-(4-cyclobutyl-2-hydroxyphenyl)-5-(7-(trifluoromethyl)-1H-pyrazolo[3,4-c]pyridine-4-carbonyl)-2,3,4,5,5a,6,8,9-octahydro-7H-1,2,5,7-tetraazabenzo[cd]azulen-7-yl)prop-2-en-1-one], the AC50 in assay [1] is below 0.0015 µM; in assay [2], 1 to 100 nM; in assay [3], above 3000 nM.

With `C=CC(=O)N1CCc2nn(-c3ccc(C4CCC4)cc3O)c3c2C(C1)N(C(=O)c1ncc(C(F)(F)F)c2[nH]cnc12)CC3` (stereo not drawn) [Compound 154, 1-(2-(4-cyclobutyl-2-hydroxyphenyl)-5-(7-(trifluoromethyl)-1H-imidazo[4,5-c]pyridine-4-carbonyl)-2,3,4,5,5a,6,8,9-octahydro-7H-1,2,5,7-tetraazabenzo[cd]azulen-7-yl)prop-2-en-1-one], the AC50 in assay [1] was below 0.0015 µM; in assay [2], 1 to 100 nM; in assay [3], above 3000 nM.
